In the assay the test system is NIH3T3-HGL HSF-1 response element luciferase, 48 h. Briefly: HSF-1 reporter activators over prolonged exposure, confirmation, cell-based, mouse, luciferase, cherry-pick, dose (AID 602296).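 Note: test compounds applied by themselves with no MG132 co-treatment.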

This note sets out measurements from PubChem BioAssay AID602296 (Broad Institute, 2012).

Structures are written as SMILES. Results filed as inconclusive are left out. The source made the active and inactive calls.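 Rule for the calls: active = fitted activation curve crossing 40% at a concentration no higher than the sample's top valid tested dose; inconclusive = flat fitted curve at 30% to 70% activation, or poor curve fit; inactive = signal decrease, flat curve within 30%, or the rest.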

With `CN(C)C(CNC(=O)CCC(=O)c1ccc(Br)cc1)c1ccccc1` (stereo not given), the AC40 was > 26 µM (inactive).

In the case of `CCSc1nnc(NC(=O)c2cccnc2Cl)s1`, the AC40 is 6.92 µM.

Consider `O=C(CN1C(=O)/C(=C\c2cccc(Cl)c2)Sc2ccccc21)NCCCN1CCOCC1`, for which the AC40 was > 12 µM (inactive).

For the compound `Cc1nc(-c2ccc(Cl)cc2)sc1C(=O)CBr`, the AC40 was 11.5 µM.

As for `COCCCNCCOc1ccc(C)cc1[N+](=O)[O-]`, the AC40 was > 26 µM (inactive).

Regarding `CC(C)Nc1nc(Cl)nc(N(C#N)CN2C(=O)c3ccccc3C2=O)n1`, the AC40 is > 26 µM (inactive).

In the case of `O=C(CSc1nccn(-c2ccc(F)c(F)c2)c1=O)NC1CCCC1`, the AC40 was > 26 µM (inactive).

`CCOc1ncccc1C(=O)NCCc1c[nH]c2ccccc12`: the AC40 was > 26 µM (inactive).

In the case of `CSc1c(C#N)c(N)nc2sc(C(=O)c3ccccc3)c(N)c12`, the AC40 is 5.48 µM.

Regarding `Cc1ccc(N2C(=O)SC(N(CC(=O)O)c3ccc(C)cc3)C2=O)cc1` (stereo not given), the AC40 was 9.53 µM.

On to `COc1c(Br)cc(Br)cc1C(=O)O`, for which the AC40 is > 26 µM (inactive).

With `S=C(N/N=C/c1cccs1)NC1CC2CCC1C2` (stereo not given), the AC40 was 4.41 µM.

Take `CC(=NCc1ccco1)C1=C(O)c2ccccc2C1=O`: the AC40 was 16.6 µM.

Regarding `CC(/C=C/c1cccs1)=C\C(=O)O`, the AC40 is > 26 µM (inactive).

For the compound `COc1ccc(/C=C\c2nc(=O)c3ccccc3o2)cc1`, the AC40 was > 26 µM (inactive).

Take `COc1ccc2c(c1OC)C(=O)OC2Nc1nc(-c2ccccc2)cs1` (stereo not given): the AC40 is > 26 µM (inactive).

Regarding `Nc1nnc(SCc2c(F)cccc2Cl)s1`, the AC40 is 14.4 µM.

With `O=C(CSCc1ccc(Br)cc1)N1CCCC1`, the AC40 is 11.3 µM.

Consider `Nc1nnc(SCC(=O)Nc2cccc3ccccc23)s1`, for which the AC40 is > 26 µM (inactive).

For the compound `C=CCn1c(O)c(C(CC)=Nc2ccc3c(c2)CCC3)c(=O)[nH]c1=O`, the AC40 is > 12 µM (inactive).

With `O=C(CC1(O)C(=O)Nc2ccc(Br)cc21)c1ccc2c(c1)OCO2` (stereo not given), the AC40 is > 26 µM (inactive).

As for `Brc1cnc2nc(SC/C=C/c3ccccc3)[nH]c2c1`, the AC40 was 20.8 µM.

Take `CCOC(=O)N1CCC(NS(=O)(=O)c2ccc3c(c2)C(C)(C)C(=O)N3C)CC1`: the AC40 is > 26 µM (inactive).

In the case of `CC[C@@]1(O)C(=O)OCc2c1cc1n(c2=O)Cc2cc3c(N)cccc3nc2-1`, the AC40 was 15.9 µM.

`NC(CSCc1cccc(Br)c1)C(=O)O` (stereo not given): the AC40 was > 26 µM (inactive).

For `O=C(O)CSc1nc2ccccc2nc1Cc1ccccc1F`, the AC40 was 9.82 µM.

For the compound `O=C(COC(=O)C1CSC2(c3ccc(F)cc3)CCC(=O)N12)NC(=O)NC1CCCC1` (stereo not given), the AC40 is > 26 µM (inactive).

Regarding `Cc1ccc(CN2CCN(CC(C)C)C(CCO)C2)s1` (stereo not given), the AC40 was 1.66 µM.

Take `CC(C)(C)N(NS(=O)(=O)c1ccc(F)cc1)c1ccccc1`: the AC40 is > 26 µM (inactive).

For the compound `NC(=O)CSC1=N/C(=C\c2ccco2)C(=O)N1c1ccc(OC(F)F)cc1`, the AC40 was 8.11 µM.

For `CC1CCN(c2ccc(C=O)o2)CC1`, the AC40 is > 26 µM (inactive).

Turning to `COc1cccc(C2C(C(N)=O)=C(C)Nc3nc(-c4cccc(Cl)c4)nn32)c1` (stereo not given), the AC40 is > 26 µM (inactive).

As for `Cc1ccc2nc(SCC(=O)NCc3ccc(F)cc3)[nH]c2c1`, the AC40 was > 26 µM (inactive).

As for `Oc1cccnc1Sc1cccc(C(F)(F)F)c1`, the AC40 was > 26 µM (inactive).

Consider `O=C1CC(N2C(=O)/C(=C/C=C/c3ccccc3)SC2=S)C(=O)N1c1ccccc1` (stereo not given), for which the AC40 was > 26 µM (inactive).

In the case of `Cc1csc2nc(CCNS(=O)(=O)c3cccs3)cn12`, the AC40 is 2.76 µM.

For the compound `COc1cc(CC(=O)N(c2ccccc2)c2nc(C)cs2)cc(OC)c1OC`, the AC40 was > 26 µM (inactive).

For the compound `CCN(CC(=O)Nc1ccc(NC(C)=O)cc1)Cc1c(O)ccc2cc(Br)ccc12`, the AC40 was 25.2 µM.

Take `CN1CCN(NC(=O)/C=C/c2ccc(Br)cc2)CC1`: the AC40 was > 26 µM (inactive).

On to `COc1ccc(-c2nnc3ccc(SCC(=O)NCC4CCCO4)nn23)cc1` (stereo not given), for which the AC40 was > 26 µM (inactive).

As for `CC(=O)Nc1cccc(-n2nnc(SCC(=O)Nc3ccc(F)c(Cl)c3)n2)c1`, the AC40 is > 26 µM (inactive).

Consider `COc1ccc(C)cc1Cn1c(S(C)(=O)=O)nc2ccccc21`, for which the AC40 is > 26 µM (inactive).

On to `O=C1NCC2=C1C(c1ccc(Br)cc1)Nc1ccccc1N2` (stereo not given), for which the AC40 was 3.58 µM.

For `Cc1ccc(CC2SC(N=C(N)N)=NC2=O)cc1` (stereo not given), the AC40 is > 26 µM (inactive).

Regarding `CN(C)CCNC(=O)/C(=C/c1ccc(-c2cccc(Cl)c2)o1)NC(=O)c1ccccc1`, the AC40 was > 26 µM (inactive).

`CSc1ccccc1-n1nnnc1SCC(=O)NCc1cccs1`: the AC40 is > 26 µM (inactive).

`Cc1onc(-c2ccccc2)c1NC(=O)N(CCC#N)Cc1ccccc1`: the AC40 is > 26 µM (inactive).

Turning to `CC(C)n1cc(/C=N/NC(=O)COc2cccc3cccnc23)c2ccccc21`, the AC40 was > 26 µM (inactive).

Regarding `CCc1cc(C(c2ccccc2OC)N2CCOCC2)c(NC(=O)c2ccccc2)s1` (stereo not given), the AC40 is > 26 µM (inactive).

In the case of `O=c1/c(=C/c2ccccc2)sc2nnc(-c3cccs3)n12`, the AC40 is > 26 µM (inactive).

Consider `N#Cc1ccc(OCCN2CCc3ccccc3C2)cc1`, for which the AC40 is 8.01 µM.

For `CCOC(=O)c1nnsc1Nc1ccc(C)c(C)c1`, the AC40 was 5.31 µM.

As for `O=C(O)CC1=C(Nc2ccccc2)C(=O)N(c2ccccc2)C1c1ccc(Cl)cc1` (stereo not given), the AC40 was 5.67 µM.

As for `O=C(Cc1cccs1)NCc1ccccc1Br`, the AC40 is 1.77 µM.

For the compound `COc1ccc(C(=O)Cn2c(C(=O)/C=C/c3ccccc3)nc3ccccc32)cc1`, the AC40 is 2.39 µM.

With `COc1cc(/C=N/NC(=S)NC2CC3C=CC2C3)cc(OC)c1OC` (stereo not given), the AC40 was > 26 µM (inactive).

For `CC1=Nc2ccccc2/C1=C/c1nc(-c2ccc(C)s2)oc1O`, the AC40 is 10.1 µM.

In the case of `COc1cccc(/C=N/NC(=S)NC2CC3CC2C2C=CCC32)c1O` (stereo not given), the AC40 is > 26 µM (inactive).

With `CCOc1cc(/C=C2/SC(=S)N(CC3CCCO3)C2=O)ccc1O` (stereo not given), the AC40 was > 26 µM (inactive).

With `CCOC(=O)C1CCCN(C(=O)c2sc3nc(C)nc(N(CC)CC)c3c2C)C1` (stereo not given), the AC40 was > 26 µM (inactive).

Consider `O=C1C2CC=CCC2C(=O)N1Cc1nnc(-c2ccc(Cl)cc2)o1` (stereo not given), for which the AC40 was 6.68 µM.

Regarding `COc1ccc(/C=C2/SC(=O)N(CCNC(=O)C3COc4ccccc4O3)C2=O)cc1` (stereo not given), the AC40 is 5.69 µM.

With `Cc1nc2scc(-c3ccc(Cl)cc3)c2c(=O)n1N`, the AC40 was > 26 µM (inactive).

In the case of `Cc1ccc(Nc2c(N)c(=O)oc3ccccc23)cc1`, the AC40 is > 26 µM (inactive).

Take `CC12CCC3C(CC=C4CC(O)CCC43C)C1C/C(=C\N1CCCC1)C2=O` (stereo not given): the AC40 was > 26 µM (inactive).

As to `COc1ccccc1/C=C1/SC(=S)N(C(C)C(=O)NC2C=CS(=O)(=O)C2)C1=O` (stereo not given), the AC40 is > 26 µM (inactive).

Regarding `CC1=C(C(=O)N2CCOCC2)C(c2c(C)cc(C)cc2C)NC(=S)N1` (stereo not given), the AC40 is > 26 µM (inactive).

As to `Cc1c(Cl)ccc2c1NC(=O)C21NC(CCC(N)=O)[C@H]2C(=O)N(c3ccc(Cl)cc3)C(=O)[C@H]21` (stereo not given in full), the AC40 was > 12 µM (inactive).

As to `CCOC(=O)/C=C(\C)Nc1cc(C)nn1-c1ccccc1`, the AC40 was 17.2 µM.

As for `COc1cc(NC(=O)Cc2cccs2)ccc1-n1cnnn1`, the AC40 is > 26 µM (inactive).

On to `CC1(C)CC(=O)C(=Cc2cn(-c3ccccc3)nc2-c2ccccc2)C(=O)C1`, for which the AC40 was 14 µM.

As for `N#Cc1ccccc1COC(=O)c1cc(=O)c2ccccc2o1`, the AC40 was 26 µM.

With `Cn1c(=O)oc2cc(S(=O)(=O)N3CCCCC3)ccc21`, the AC40 was > 26 µM (inactive).

For the compound `COc1ccc(C)cc1-n1c(=O)c2ccccc2c2ccccc2c1=O`, the AC40 is > 26 µM (inactive).

With `O=C(NCc1ccccc1)c1c(Cl)nc(Cl)c(Cl)c1Cl`, the AC40 was > 26 µM (inactive).

In the case of `CN(Cc1ccccc1)C(=O)CCC1CCN(C(=O)CC2=CCCCC2)CC1`, the AC40 is > 26 µM (inactive).

On to `O=C(Nc1ccc(Br)cn1)c1ccc([N+](=O)[O-])o1`, for which the AC40 was > 26 µM (inactive).

In the case of `CC(C)[C@H](NC(=O)OC(C)(C)C)c1nnc(SCC(=O)Nc2ccc(Br)cc2)o1`, the AC40 was > 26 µM (inactive).

As for `CCCCc1cc(O)c(CCCC)c(O)c1`, the AC40 was 4.58 µM.

Regarding `COc1cc(SSc2cc(OC)cc([N+](=O)[O-])c2N)c(N)c([N+](=O)[O-])c1`, the AC40 was 17.9 µM.

Consider `Cc1ccc(NN2C(=O)C=C(c3ccccc3)C2=O)cc1`, for which the AC40 is 7.33 µM.

Consider `CC1(C)CC(=O)C(C=Nc2cccnc2)=C(O)C1`, for which the AC40 is > 26 µM (inactive).

On to `CCCNC(=O)Nc1ccc(C)cc1C`, for which the AC40 was > 26 µM (inactive).

On to `Nc1nc(SCC(=O)Nc2ccc([N+](=O)[O-])cc2Br)n[nH]1`, for which the AC40 is > 26 µM (inactive).

In the case of `Cc1onc(-c2ccccc2)c1C(=O)OCc1nnc(-c2ccccc2)o1`, the AC40 was > 26 µM (inactive).

Regarding `CC(C)(C)c1[nH]ncc1[N+](=O)[O-]`, the AC40 is > 26 µM (inactive).

Consider `CC(=O)c1cccc(N(CC(=O)Nc2ccc(F)cc2F)S(C)(=O)=O)c1`, for which the AC40 is 5.46 µM.

`CC(=O)SC(C[N+](=O)[O-])c1cn(C(C)=O)c2ccccc12` (stereo not given): the AC40 is > 26 µM (inactive).

Consider `O=C(O)CSc1c(-c2ccccc2)[nH]c2ccccc12`, for which the AC40 was > 26 µM (inactive).

With `O=C(CSc1nnc(-c2ccc(F)cc2)c2ccccc12)Nc1ccccc1`, the AC40 was 18.7 µM.

With `COc1ccc(C2C3=C(CCCC3=O)N(CC(=O)O)C3=C2C(=O)CCC3)cc1Cl`, the AC40 is > 26 µM (inactive).

Consider `COc1ccc(-c2cc(C(=O)NCc3ccco3)c3ccccc3n2)cc1`, for which the AC40 is > 26 µM (inactive).

As to `COc1ccc(N2CCN(c3ncnc4c3cnn4-c3ccc(C)cc3C)CC2)cc1`, the AC40 is > 26 µM (inactive).

Regarding `O=C(CN1c2ccccc2S(=O)(=O)c2ccccc21)NCc1ccc(F)cc1`, the AC40 was > 26 µM (inactive).

For `O=C(c1ccccc1Br)N1CCN(c2ccccc2)CC1`, the AC40 is > 26 µM (inactive).
